21 molecules from article PMC8914530 (Data in Brief, 2022) can be followed below.

Read-outs that look alike come from different tables or passages of the source.

One data set addresses T1, CYP2B6 (Homo sapiens, UniProt P20813).
T1 sequence (P20813 1-491): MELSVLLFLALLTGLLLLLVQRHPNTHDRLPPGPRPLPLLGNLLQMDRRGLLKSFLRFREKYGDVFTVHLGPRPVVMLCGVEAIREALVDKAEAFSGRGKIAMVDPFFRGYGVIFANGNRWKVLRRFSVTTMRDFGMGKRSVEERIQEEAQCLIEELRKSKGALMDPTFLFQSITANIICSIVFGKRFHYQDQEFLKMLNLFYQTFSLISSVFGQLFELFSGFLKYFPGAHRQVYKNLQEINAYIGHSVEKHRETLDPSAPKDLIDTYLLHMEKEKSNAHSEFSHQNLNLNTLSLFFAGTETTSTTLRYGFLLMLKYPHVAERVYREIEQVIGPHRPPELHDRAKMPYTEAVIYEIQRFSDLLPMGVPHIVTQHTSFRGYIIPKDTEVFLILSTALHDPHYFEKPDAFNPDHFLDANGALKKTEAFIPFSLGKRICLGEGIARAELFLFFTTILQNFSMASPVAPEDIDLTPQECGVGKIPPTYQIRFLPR
The experiment in a line: CYP2B6 Vivid CYP450 Blue fluorescent inhibition assay. In kind it is biochemical. Conditions: for CYP2B6 Hillslope: variable slope sigmoidal fit, GraphPad Prism 7.0; for IC50 Ratio: ratio of the IC50 values from the two CYPs, + indicates greater affinity for CYP2B6, – greater affinity for CYP3A4.

The target of a further data set is CYP3A4 (Homo sapiens, UniProt P08684). The experiment in a line: CYP3A4 Vivid CYP450 Red fluorescent inhibition assay. In kind it is biochemical. Particulars: for CYP3A4 Hillslope: variable slope sigmoidal fit, GraphPad Prism 7.0.
Chain of CYP3A4 (P08684 whole entry): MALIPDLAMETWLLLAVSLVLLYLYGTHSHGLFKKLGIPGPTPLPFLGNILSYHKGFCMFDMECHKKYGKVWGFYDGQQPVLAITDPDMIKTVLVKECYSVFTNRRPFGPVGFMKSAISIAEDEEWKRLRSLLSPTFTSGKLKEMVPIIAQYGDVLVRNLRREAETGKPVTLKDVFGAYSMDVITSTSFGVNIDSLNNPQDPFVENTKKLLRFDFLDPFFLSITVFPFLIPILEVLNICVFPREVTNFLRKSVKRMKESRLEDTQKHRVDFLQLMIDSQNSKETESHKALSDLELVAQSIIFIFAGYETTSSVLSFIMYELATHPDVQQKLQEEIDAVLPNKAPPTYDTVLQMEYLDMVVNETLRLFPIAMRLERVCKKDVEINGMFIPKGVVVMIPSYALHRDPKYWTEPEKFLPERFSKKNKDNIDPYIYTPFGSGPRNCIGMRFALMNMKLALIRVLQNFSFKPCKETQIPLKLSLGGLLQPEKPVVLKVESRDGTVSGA

Turning to `C[C@H](CCC(=O)O)[C@H]1CC[C@H]2[C@@H]3[C@H](O)C[C@@H]4C[C@H](O)CC[C@]4(C)[C@H]3CC[C@]12C` [Chenodeoxycholic acid], on CYP2B6, the IC50 came to 49 µM and the “CYP2B6 Hillslope” value is reported as −1.32.
On CYP3A4, `CCCCCCCCCCCCCCCC(=O)O` [Palmitic acid] yielded an IC50 of 19900 µM.
Consider `CCOP(=S)(OCC)Oc1cc(C)nc(C(C)C)n1` [Diazinon], for which, at CYP2B6, the IC50 was determined as 0.0754 µM and the “CYP2B6 Hillslope” value is −1.51. At CYP3A4, the “CYP3A4 Hillslope” value is −2.52.
As to `O=C(O)c1ccccc1C(=O)O` [Phthalic acid], on CYP2B6, the IC50 is 1170 µM and the “CYP2B6 Hillslope” value was −1.71.
As for `CCOP(=S)(OCC)Oc1nc(Cl)c(Cl)cc1Cl` [Chlorpyrifos], on CYP2B6, the half-inhibitory concentration (IC50) worked out at 0.0092 µM, the “IC50 Ratio” value was “+30.4” and the “CYP2B6 Hillslope” value is −2.09. Also, the midpoint of inhibition at CYP3A4, the IC50, lay at 0.28 µM.
Turning to Nonylphenol, the “CYP2B6 Hillslope” value at CYP2B6 was −1.21. In addition, at CYP3A4 (read-out: CYP3A4 IC50, CYP3A4-transfected baculosomes, concentration-response, n = 3–12), the IC50 was 6.25 µM. Also, the “CYP3A4 Hillslope” value at CYP3A4 was −1.02.
Regarding `CCCCC/C=C\C/C=C\C/C=C\C/C=C\CCCC(=O)O` [Arachidonic acid], on CYP2B6, 1.04 µM corresponded to half-maximal inhibition (IC50) and the “CYP2B6 Hillslope” value is on record as −0.59. Further, at CYP3A4, the IC50 worked out at 13.7 µM and the “CYP3A4 Hillslope” value is listed as −4.08.
`C[C@H](CCC(=O)O)[C@H]1CC[C@H]2[C@@H]3CC[C@@H]4C[C@H](O)CC[C@]4(C)[C@H]3CC[C@]12C` [Lithocholic acid]: on CYP2B6, 2.47 µM corresponded to half-maximal inhibition (IC50) and the “CYP2B6 Hillslope” value is −0.51.
For `CC(C)(c1ccc(O)cc1)c1ccc(O)cc1` [Bisphenol A], in that order: 8.44 µM and −2.65.
Turning to `CCOP(=S)(OCC)Oc1ccc([N+](=O)[O-])cc1` [Parathion], on CYP2B6, the IC50 was found to be 0.026 µM, the “IC50 Ratio” value is “+28.03” and the “CYP2B6 Hillslope” value is listed as −1.13. Moreover, at CYP3A4, the IC50 is 0.729 µM and the “CYP3A4 Hillslope” value is given as −0.094.
With `CCCCCCCC/C=C\CCCCCCCC(=O)O` [Oleic acid], at CYP2B6, the IC50 amounted to 9.3 µM and the “CYP2B6 Hillslope” value is recorded as −2.45.
The corresponding values for `C[C@]12CC[C@H]3[C@@H](CCC4=CC(=O)CC[C@@]43C)[C@@H]1CC[C@@H]2O` [Testosterone] are 90.2 µM and −0.32.
As for `CC1(C)C(C=C(Cl)Cl)C1C(=O)OC(C#N)c1cccc(Oc2ccccc2)c1` (stereo not drawn) [Cypermethrin], at CYP2B6, the IC50 came out at 6040 µM and the “CYP2B6 Hillslope” value is listed as −0.79.
For `C[C@]12CC[C@@H]3c4ccc(O)cc4CC[C@H]3[C@@H]1CC[C@@H]2O` [Estradiol], on CYP2B6, inhibition was half-maximal at 42.2 µM (IC50) and the “CYP2B6 Hillslope” value was −0.33. On CYP3A4, it took 2.78 µM to reach half-maximal inhibition (IC50) and the “CYP3A4 Hillslope” value was −0.903.
Take `CC/C=C\C/C=C\C/C=C\CCCCCCCC(=O)O` [α-Linolenic acid]: at CYP2B6, it took 7.32 µM to reach half-maximal inhibition (IC50) and the “CYP2B6 Hillslope” value was −1.45. At CYP3A4, 4.04 µM corresponded to half-maximal inhibition (IC50) and the “CYP3A4 Hillslope” value is −0.701.
With `CCNc1nc(Cl)nc(NC(C)C)n1` [Atrazine], on CYP2B6, 0.144 µM corresponded to half-maximal inhibition (IC50) and the “CYP2B6 Hillslope” value was −0.34.
Turning to `CCCCC/C=C\C/C=C\CCCCCCCC(=O)O` [Linoleic acid], at CYP2B6, the IC50 came to 9.19 µM and the “CYP2B6 Hillslope” value is reported as −0.69. On CYP3A4, 18.3 µM corresponded to half-maximal inhibition (IC50) and the “CYP3A4 Hillslope” value is given as −4.46.
In the case of `Clc1ccccc1CN1CCc2sccc2C1` [Ticlopidine, reference compound], the “CYP2B6 Hillslope” value at CYP2B6 is given as −0.95.
On to `O=S1OCC2C(CO1)C1(Cl)C(Cl)=C(Cl)C2(Cl)C1(Cl)Cl` (stereo not drawn) [Endosulfan], for which, on CYP2B6, the IC50 was determined as 0.003 µM and the “CYP2B6 Hillslope” value is −0.66. Further, on CYP3A4, the IC50 came to 0.0046 µM and the “CYP3A4 Hillslope” value was −0.261.
As to `CC/C=C\C/C=C\C/C=C\C/C=C\C/C=C\C/C=C\CCC(=O)O` [Docosahexaenoic acid], at CYP2B6, half-maximal inhibition (IC50) was put at 2.06 µM and the “CYP2B6 Hillslope” value is listed as −1.22. In addition, at CYP3A4, the IC50 was 5.08 µM and the “CYP3A4 Hillslope” value is listed as −5.0.
As to `Oc1cc(Cl)ccc1Oc1ccc(Cl)cc1Cl` [Triclosan], on CYP2B6, the IC50 was determined as 0.944 µM and the “CYP2B6 Hillslope” value was −1.30. Also, the “CYP3A4 Hillslope” value on CYP3A4 was −1.46.
